Source: ChEMBL document CHEMBL3124838, “Discovery of 6-aryl-azabenzimidazoles that inhibit the TBK1/IKK-ε kinases” (Bioorg Med Chem Lett, 2014)

Experiments:
[1] = target: Tyrosine-protein kinase Lyn (Homo sapiens) (UniProt P07948); assay: Inhibition of human LYN assessed as residual activity at 1 uM relative to control
[2] = target: Cyclin-dependent kinase 1/cyclin B1 (Homo sapiens) (UniProt P06493+P14635); assay: Inhibition of human CDK1/cyclin B assessed as residual activity at 1 uM relative to control; type: protein-complex assay
[3] = target: T1, Serine/threonine-protein kinase Sgk1 (Homo sapiens) (UniProt O00141); assay: Inhibition of human SGK assessed as residual activity at 1 uM relative to control
T1 sequence (whole entry): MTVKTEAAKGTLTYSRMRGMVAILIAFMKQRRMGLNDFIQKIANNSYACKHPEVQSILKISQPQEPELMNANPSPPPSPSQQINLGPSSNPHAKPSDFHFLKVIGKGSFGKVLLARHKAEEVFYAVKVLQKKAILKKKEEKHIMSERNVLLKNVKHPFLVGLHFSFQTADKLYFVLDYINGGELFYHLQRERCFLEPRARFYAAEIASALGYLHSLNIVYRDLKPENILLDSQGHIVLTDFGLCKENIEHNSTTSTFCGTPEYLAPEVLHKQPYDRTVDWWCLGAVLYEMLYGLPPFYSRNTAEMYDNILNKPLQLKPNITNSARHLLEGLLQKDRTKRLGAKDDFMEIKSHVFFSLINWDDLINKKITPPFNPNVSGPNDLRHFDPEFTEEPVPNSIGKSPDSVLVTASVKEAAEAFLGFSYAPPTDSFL

[4] = target: Macrophage colony-stimulating factor 1 receptor (Homo sapiens) (UniProt P07333); assay: Inhibition of human FMS assessed as residual activity at 1 uM relative to control
[5] = target: Phosphatidylinositol 4,5-bisphosphate 3-kinase catalytic subunit gamma isoform (Homo sapiens) (UniProt P48736); assay: Inhibition of human PI3K p120gamma assessed as residual activity at 1 uM relative to control
[6] = target: Rho-associated protein kinase 1 (Homo sapiens) (UniProt Q13464); assay: Inhibition of human ROCK-1 assessed as residual activity at 1 uM relative to control
[7] = target: T2, MAP kinase-activated protein kinase 5 (Homo sapiens) (UniProt Q8IW41); assay: Inhibition of human PRAK assessed as residual activity at 1 uM relative to control
T2 sequence (whole entry): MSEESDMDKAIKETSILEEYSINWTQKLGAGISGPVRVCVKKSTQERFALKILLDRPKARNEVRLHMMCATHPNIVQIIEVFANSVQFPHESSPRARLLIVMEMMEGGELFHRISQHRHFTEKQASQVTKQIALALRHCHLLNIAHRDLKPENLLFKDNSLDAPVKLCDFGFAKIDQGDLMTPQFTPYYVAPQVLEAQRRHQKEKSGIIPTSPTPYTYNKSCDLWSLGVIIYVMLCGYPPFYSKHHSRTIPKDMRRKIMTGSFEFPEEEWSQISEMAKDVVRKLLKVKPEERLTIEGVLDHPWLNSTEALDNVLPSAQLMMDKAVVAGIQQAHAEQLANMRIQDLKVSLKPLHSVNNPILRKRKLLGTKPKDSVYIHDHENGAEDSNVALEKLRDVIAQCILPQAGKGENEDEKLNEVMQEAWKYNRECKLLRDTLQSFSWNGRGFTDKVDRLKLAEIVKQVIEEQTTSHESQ

[8] = target: T3, NUAK family SNF1-like kinase 1 (Homo sapiens) (UniProt O60285); assay: Inhibition of human ARK5 assessed as residual activity at 1 uM relative to control
T3 sequence (whole entry): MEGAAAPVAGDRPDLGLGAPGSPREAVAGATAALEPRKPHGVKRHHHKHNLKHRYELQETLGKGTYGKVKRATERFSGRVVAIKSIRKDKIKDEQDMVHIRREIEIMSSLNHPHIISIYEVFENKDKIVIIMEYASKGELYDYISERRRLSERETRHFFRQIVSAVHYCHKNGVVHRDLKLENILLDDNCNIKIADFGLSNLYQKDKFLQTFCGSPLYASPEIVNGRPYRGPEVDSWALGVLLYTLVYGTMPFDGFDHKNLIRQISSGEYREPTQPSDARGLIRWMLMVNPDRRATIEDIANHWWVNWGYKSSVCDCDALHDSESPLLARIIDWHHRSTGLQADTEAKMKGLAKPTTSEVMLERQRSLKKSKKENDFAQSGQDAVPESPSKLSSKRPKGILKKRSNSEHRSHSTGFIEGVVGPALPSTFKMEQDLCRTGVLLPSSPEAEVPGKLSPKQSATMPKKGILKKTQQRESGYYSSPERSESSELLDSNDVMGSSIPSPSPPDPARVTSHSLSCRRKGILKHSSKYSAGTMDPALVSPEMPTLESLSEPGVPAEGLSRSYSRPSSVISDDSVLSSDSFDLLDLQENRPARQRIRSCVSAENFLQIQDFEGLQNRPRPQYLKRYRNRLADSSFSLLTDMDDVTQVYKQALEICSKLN

[9] = target: Calcium/calmodulin-dependent protein kinase type II subunit beta (Homo sapiens) (UniProt Q13554); assay: Inhibition of human CaMK2beta assessed as residual activity at 1 uM relative to control
[10] = target: SRSF protein kinase 1 (Homo sapiens) (UniProt Q96SB4); assay: Inhibition of human SRPK1 assessed as residual activity at 1 uM relative to control
[11] = target: Insulin-like growth factor 1 receptor (Homo sapiens) (UniProt P08069); assay: Inhibition of human activated IGF-1R assessed as residual activity at 1 uM relative to control
[12] = target: T4, Serine/threonine-protein kinase 4 (Homo sapiens) (UniProt Q13043); assay: Inhibition of human MST1 assessed as residual activity at 1 uM relative to control
T4 sequence (whole entry): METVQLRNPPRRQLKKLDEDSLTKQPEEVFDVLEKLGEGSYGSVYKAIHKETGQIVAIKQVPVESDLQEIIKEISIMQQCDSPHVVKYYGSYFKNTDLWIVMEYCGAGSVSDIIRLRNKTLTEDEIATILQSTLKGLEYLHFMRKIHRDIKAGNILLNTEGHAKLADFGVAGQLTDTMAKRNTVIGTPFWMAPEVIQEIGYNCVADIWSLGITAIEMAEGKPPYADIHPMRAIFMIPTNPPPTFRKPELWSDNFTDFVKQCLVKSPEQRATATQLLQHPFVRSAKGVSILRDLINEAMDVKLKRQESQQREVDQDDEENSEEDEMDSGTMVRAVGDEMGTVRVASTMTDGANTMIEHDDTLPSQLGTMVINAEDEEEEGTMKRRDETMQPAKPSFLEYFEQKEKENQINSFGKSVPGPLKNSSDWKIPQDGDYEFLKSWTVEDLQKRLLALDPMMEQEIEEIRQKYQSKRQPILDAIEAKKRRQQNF

SRSF protein kinase 1 (Homo sapiens), sequence (Q96SB4 whole entry): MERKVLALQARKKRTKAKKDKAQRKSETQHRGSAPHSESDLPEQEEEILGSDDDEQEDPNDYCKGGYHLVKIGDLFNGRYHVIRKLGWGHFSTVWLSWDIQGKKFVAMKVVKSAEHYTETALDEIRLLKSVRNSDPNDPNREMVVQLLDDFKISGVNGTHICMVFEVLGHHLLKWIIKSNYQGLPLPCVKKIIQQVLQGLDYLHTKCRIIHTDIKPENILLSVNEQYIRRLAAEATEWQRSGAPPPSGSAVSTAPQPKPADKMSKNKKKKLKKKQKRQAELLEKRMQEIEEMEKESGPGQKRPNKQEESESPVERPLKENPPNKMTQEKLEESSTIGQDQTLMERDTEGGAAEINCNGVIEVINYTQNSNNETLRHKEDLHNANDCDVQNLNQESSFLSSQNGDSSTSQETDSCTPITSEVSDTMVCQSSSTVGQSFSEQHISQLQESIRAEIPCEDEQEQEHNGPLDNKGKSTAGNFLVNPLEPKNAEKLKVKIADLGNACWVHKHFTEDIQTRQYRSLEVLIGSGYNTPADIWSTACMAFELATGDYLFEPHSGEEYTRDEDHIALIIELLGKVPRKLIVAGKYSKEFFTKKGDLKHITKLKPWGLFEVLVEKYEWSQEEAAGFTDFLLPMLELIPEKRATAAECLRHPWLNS
Tyrosine-protein kinase Lyn (Homo sapiens), sequence (P07948 2-512 limits assumed): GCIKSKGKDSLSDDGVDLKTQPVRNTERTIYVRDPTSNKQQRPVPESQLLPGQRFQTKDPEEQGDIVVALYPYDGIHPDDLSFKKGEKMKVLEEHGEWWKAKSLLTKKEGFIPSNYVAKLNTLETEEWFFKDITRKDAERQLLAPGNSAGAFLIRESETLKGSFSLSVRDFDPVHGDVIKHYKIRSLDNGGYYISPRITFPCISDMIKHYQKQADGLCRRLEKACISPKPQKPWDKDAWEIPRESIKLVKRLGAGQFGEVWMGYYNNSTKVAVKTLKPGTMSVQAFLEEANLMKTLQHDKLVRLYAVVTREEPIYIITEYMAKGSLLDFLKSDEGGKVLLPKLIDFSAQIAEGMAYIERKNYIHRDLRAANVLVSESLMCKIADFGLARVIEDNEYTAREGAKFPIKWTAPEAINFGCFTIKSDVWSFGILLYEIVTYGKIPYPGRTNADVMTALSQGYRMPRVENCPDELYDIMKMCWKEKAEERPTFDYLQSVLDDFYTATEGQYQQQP
Calcium/calmodulin-dependent protein kinase type II subunit beta (Homo sapiens), sequence (Q13554 whole entry): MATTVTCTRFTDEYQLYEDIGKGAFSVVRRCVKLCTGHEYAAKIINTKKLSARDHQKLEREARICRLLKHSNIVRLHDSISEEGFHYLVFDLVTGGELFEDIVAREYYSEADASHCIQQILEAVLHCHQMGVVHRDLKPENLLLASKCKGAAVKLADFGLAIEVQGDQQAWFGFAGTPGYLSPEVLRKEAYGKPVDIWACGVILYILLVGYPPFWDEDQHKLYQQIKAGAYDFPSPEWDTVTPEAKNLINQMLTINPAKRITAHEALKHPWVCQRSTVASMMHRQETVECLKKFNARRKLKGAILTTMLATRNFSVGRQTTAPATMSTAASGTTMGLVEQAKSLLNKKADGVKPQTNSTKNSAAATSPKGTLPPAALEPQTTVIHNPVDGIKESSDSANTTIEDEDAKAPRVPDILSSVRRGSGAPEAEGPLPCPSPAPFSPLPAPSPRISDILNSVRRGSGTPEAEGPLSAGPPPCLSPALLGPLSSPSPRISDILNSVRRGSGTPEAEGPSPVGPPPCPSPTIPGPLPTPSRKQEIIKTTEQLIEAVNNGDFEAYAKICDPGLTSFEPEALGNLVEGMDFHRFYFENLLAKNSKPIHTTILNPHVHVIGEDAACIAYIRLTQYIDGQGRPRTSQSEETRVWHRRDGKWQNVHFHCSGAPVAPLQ
Phosphatidylinositol 4,5-bisphosphate 3-kinase catalytic subunit gamma isoform (Homo sapiens), sequence (P48736 whole entry, looked up, canonical isoform): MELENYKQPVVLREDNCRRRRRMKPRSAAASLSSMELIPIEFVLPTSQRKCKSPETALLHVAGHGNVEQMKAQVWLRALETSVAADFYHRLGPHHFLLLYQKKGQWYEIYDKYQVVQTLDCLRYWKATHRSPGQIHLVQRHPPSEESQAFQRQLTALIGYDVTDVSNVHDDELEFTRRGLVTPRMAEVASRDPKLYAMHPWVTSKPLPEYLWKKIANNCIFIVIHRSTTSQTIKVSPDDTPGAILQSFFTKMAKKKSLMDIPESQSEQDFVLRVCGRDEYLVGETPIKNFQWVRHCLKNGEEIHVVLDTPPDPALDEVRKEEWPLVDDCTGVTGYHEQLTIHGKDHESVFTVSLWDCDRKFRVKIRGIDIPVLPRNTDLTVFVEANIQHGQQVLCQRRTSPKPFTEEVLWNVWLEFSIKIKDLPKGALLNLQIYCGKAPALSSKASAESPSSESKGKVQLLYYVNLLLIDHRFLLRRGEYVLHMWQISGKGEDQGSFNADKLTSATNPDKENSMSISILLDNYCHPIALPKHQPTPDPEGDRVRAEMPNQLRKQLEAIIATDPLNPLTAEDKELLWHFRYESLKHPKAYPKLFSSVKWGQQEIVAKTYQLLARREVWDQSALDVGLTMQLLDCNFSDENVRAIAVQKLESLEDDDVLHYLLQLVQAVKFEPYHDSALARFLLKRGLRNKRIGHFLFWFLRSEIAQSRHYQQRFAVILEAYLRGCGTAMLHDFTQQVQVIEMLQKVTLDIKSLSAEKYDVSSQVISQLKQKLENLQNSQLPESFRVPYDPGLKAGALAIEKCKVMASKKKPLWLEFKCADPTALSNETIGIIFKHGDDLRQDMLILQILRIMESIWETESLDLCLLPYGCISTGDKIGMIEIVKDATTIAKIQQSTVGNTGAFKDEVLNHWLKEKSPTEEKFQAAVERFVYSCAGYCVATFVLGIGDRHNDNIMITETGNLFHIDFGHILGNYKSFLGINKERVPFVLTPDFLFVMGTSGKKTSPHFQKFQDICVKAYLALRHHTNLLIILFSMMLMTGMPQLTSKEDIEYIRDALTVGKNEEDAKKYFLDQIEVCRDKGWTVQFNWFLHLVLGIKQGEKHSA
Insulin-like growth factor 1 receptor (Homo sapiens), sequence (P08069 31-736 limits assumed): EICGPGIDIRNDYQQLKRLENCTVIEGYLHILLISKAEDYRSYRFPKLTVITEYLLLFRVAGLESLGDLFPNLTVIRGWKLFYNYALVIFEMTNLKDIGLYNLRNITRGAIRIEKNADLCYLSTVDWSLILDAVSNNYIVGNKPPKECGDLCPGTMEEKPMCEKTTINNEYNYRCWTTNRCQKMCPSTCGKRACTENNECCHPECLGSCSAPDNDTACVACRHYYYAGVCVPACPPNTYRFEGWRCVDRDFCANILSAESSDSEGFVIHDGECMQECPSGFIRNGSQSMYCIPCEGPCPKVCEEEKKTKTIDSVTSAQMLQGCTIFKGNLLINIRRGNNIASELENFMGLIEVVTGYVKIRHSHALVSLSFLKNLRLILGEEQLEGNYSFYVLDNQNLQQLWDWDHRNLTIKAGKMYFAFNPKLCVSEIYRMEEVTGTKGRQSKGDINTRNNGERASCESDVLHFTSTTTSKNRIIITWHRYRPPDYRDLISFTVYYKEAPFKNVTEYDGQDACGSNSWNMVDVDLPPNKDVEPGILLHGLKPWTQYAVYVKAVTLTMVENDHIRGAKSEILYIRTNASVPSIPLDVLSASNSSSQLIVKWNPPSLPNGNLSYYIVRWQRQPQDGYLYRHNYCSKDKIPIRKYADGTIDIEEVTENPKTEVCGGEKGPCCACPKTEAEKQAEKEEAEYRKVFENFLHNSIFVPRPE
Insulin-like growth factor 1 receptor (Homo sapiens), sequence (P08069 741-1367 limits assumed): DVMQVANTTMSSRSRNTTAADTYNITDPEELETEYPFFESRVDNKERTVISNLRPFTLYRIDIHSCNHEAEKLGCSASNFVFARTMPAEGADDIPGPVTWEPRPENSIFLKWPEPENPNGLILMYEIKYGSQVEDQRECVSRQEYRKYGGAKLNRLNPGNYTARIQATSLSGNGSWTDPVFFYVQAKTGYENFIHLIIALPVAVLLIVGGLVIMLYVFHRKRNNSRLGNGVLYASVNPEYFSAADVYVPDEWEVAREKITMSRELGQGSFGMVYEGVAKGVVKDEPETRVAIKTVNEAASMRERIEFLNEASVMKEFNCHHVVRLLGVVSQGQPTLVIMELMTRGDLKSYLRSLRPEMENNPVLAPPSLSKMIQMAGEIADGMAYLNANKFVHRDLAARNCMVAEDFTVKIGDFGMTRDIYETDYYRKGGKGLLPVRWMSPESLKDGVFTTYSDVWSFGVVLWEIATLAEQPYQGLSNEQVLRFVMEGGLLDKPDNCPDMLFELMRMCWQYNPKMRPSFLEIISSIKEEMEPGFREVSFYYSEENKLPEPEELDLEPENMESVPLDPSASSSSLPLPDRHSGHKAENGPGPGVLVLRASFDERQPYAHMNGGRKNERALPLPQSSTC
Cyclin-dependent kinase 1/cyclin B1 (Homo sapiens), sequence (P06493 whole entry, looked up): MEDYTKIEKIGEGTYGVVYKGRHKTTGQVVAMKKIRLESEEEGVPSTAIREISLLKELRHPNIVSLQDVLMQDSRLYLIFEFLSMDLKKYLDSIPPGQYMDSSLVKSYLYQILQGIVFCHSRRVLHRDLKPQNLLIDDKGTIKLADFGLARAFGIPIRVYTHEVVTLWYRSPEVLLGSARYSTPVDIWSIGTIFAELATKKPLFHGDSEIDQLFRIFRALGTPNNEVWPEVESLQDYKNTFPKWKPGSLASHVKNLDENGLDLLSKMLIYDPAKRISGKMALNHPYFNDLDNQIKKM
Cyclin-dependent kinase 1/cyclin B1 (Homo sapiens), sequence (P14635 whole entry, looked up): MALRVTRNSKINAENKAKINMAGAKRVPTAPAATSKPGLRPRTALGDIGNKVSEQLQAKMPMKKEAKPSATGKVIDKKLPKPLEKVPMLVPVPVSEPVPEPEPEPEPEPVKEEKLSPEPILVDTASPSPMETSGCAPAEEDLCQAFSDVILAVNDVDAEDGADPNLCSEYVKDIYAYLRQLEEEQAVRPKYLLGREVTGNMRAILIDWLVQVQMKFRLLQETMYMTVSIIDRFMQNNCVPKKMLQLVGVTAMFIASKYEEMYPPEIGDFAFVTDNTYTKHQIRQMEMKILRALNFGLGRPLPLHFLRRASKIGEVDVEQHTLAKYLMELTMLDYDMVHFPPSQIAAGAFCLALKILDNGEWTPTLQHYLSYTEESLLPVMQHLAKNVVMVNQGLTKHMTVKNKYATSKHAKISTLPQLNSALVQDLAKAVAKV

Activity [1] [%]	Activity [2] [%]	Activity [3] [%]	Activity [4] [%]	Activity [5] [%]	Activity [6] [%]	Activity [7] [%]	Activity [8] [%]	Activity [9] [%]	Activity [10] [%]	Activity [11] [%]	Activity [12] [%]	Structure (SMILES)
46	68	102	63	86	113	112	68	96	91	95	115	COc1ccc(-c2nc3cc(-c4csc(C(=O)NCC(C)C)c4)cnc3[nH]2)cc1
39	68	78	70	90	98	102	76	97	96	91	116	COc1ccc(-c2nc3cc(-c4csc(C(=O)NCCC(C)C)c4)cnc3[nH]2)cc1
61	89	82	70	85	104	115	79	98	94	80	122	COc1ccc(-c2nc3cc(-c4csc(C(=O)NCC(C)(C)C)c4)cnc3[nH]2)cc1
